Assay results published in publication PMC2263054, “Functional evolution of the vitamin D and pregnane X receptors” (BMC Evolutionary Biology, 2007).
Structures can show the parent of a compound that is named as a salt. Where two headings read alike, the source gives them in different places.

Legend:
Format in all cases: cell-based
Zebrafish VDR = target: T1, Zebrafish VDR (Danio rerio, UniProt Q9PTN2); assay: luciferase reporter transactivation assay in HepG2-NTCP cells, GAL4/zfVDR LBD chimera with tk-UAS-Luc; conditions: for Effect on zebrafish VDR: screening for activators, at least three concentrations of each drug
T1 sequence (Q9PTN2 121-453): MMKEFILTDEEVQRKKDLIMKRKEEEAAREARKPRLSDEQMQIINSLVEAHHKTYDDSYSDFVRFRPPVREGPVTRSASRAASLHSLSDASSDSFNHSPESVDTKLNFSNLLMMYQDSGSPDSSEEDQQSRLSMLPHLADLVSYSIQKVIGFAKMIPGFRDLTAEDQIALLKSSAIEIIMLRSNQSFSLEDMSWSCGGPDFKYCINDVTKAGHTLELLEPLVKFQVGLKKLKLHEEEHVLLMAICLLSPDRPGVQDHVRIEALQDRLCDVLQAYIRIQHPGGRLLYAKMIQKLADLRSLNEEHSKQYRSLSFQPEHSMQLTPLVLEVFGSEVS

Xenopus laevis VDR = target: T2, Xenopus laevis VDR (Xenopus laevis, UniProt O13124); assay: luciferase reporter transactivation assay in HepG2-NTCP cells, GAL4/xlVDR LBD chimera with tk-UAS-Luc; conditions: for Effect on Xenopus laevis VDR: screening for activators, at least three concentrations of each drug
T2 sequence (O13124 90-422): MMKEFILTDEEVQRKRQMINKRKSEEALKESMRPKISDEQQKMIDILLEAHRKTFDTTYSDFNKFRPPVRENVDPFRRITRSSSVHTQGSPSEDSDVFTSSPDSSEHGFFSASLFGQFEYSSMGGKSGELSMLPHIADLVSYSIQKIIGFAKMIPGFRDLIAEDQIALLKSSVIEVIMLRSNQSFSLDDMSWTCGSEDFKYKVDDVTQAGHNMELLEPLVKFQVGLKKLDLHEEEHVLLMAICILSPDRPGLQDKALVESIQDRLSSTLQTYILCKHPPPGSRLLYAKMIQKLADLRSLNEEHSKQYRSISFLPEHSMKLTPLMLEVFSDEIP

Sea lamprey VDR = target: T3, Sea lamprey VDR (Petromyzon marinus, UniProt Q7ZZY9)
T3 sequence (Q7ZZY9 92-406): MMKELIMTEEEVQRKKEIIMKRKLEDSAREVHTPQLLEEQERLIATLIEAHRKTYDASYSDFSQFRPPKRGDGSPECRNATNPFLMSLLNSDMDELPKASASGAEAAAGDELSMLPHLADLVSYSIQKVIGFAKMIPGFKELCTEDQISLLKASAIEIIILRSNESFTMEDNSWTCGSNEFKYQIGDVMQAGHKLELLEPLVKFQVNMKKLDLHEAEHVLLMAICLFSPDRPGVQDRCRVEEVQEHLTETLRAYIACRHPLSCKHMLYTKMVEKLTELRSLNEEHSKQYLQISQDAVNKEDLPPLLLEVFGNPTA

[1] = screening for activators, at least three concentrations of each drug
[2] = HepG2-NTCP cells, luciferase reporter, unit not given, also cells saying No effect

Row | Compound | Effect on zebrafish VDR (Zebrafish VDR) | Effect on Xenopus laevis VDR (Xenopus laevis VDR) | Effect on sea lamprey VDR (Sea lamprey VDR; [1]) | Zebrafish VDR EC50 ± SD (Zebrafish VDR; [2]) | Xenopus VDR EC50 ± SD (Xenopus laevis VDR; [2]) | Sea lamprey VDR EC50 ± SD (Sea lamprey VDR; [2]) | Effect on sea lamprey VDR (Sea lamprey VDR)
1 | CC(=O)N1CCN(c2ccc(OCC3COC(Cn4ccnc4)(c4ccc(Cl)cc4Cl)O3)cc2)CC1 (stereo not drawn) [Ketoconazole] | No effect | No effect | No effect | – | – | – | –
2 | CCCc1c(OCCCCc2nnn[nH]2)ccc(C(C)=O)c1O [LY 171883] | No effect | No effect | No effect | – | – | – | –
3 | C=CC[C@@H]1[C@H](O)CC[C@@]2(C)[C@H]1CC[C@@H]1[C@@H]2CC[C@]2(C)[C@@H]([C@H](C)CCCC(C)C)CC[C@@H]12 [LY 295427] | No effect | No effect | No effect | – | – | – | –
4 | CC(C)=CCC[C@@H](C)[C@H]1CC[C@@]2(C)C3=C(CC[C@]12C)[C@@]1(C)CC[C@H](O)C(C)(C)[C@@H]1CC3 [Lanosterol] | No effect | No effect | No effect | – | – | – | –
5 | CC(C)CCC[C@@H](C)[C@H]1CC[C@H]2C3=CC[C@H]4C[C@@H](O)CC[C@]4(C)[C@H]3CC[C@]12C [Lathosterol] | No effect | No effect | No effect | – | – | – | –
6 | C#C[C@]1(O)CC[C@H]2[C@@H]3CCC4=CC(=O)CC[C@@H]4[C@H]3CC[C@@]21CC [Levonorgestrol] | No effect | No effect | No effect | – | – | – | –
7 | C[C@H](CCC(=O)O)[C@H]1CC[C@H]2[C@@H]3CC[C@@H]4C[C@H](O)CC[C@]4(C)[C@H]3CC[C@]12C [Lithocholic acid] | – | – | – | No effect | No effect | No effect | –
8 | COc1c(C)c2c(c(O)c1C/C=C(\C)CCC(=O)O)C(=O)OC2 [Mycophenolic acid] | No effect | No effect | No effect | – | – | – | –
9 | CCCCCCCC/C=C\CCCCCCCC(=O)NCCO [N-Oleoylethanolamide] | No effect | No effect | No effect | – | – | – | –
10 | C#C[C@]1(O)CC[C@H]2[C@@H]3CCC4=CC(=O)CC[C@@H]4[C@H]3CC[C@@]21C [Norethindrone] | No effect | No effect | – | – | – | – | No effect
11 | CC(=O)O[C@H]1C(=O)[C@@]2(C)[C@H]([C@H](OC(=O)c3ccccc3)[C@]3(O)C[C@H](OC(=O)[C@H](O)[C@@H](NC(=O)c4ccccc4)c4ccccc4)C(C)=C1C3(C)C)[C@]1(OC(C)=O)CO[C@@H]1C[C@@H]2O [Paclitaxel] | No effect | No effect | No effect | – | – | – | –
12 | CC(C)(O)[C@H]1O[C@H]2CC[C@@]3(C)[C@@](O)(CC[C@H]4Cc5c([nH]c6ccccc56)[C@@]43C)C2=CC1=O [Paxilline] | No effect | No effect | No effect | – | – | – | –
13 | CCc1ccc(CCOc2ccc(CC3SC(=O)NC3=O)cc2)nc1 (stereo not drawn) [Pioglitazone HCl] | No effect | No effect | No effect | – | – | – | –
14 | C[C@H](O)[C@H]1CC[C@H]2[C@@H]3CC[C@@H]4C[C@H](O[C@@H]5O[C@H](C(=O)O)[C@@H](O)[C@H](O)[C@H]5O)CC[C@]4(C)[C@H]3CC[C@]12C [Pregnanediol glucuronide] | No effect | No effect | No effect | – | – | – | –
15 | CC(=O)[C@H]1[C@H](C#N)C[C@H]2[C@@H]3CC=C4C[C@@H](O)CC[C@]4(C)[C@H]3CC[C@@]21C [Pregnenolone-16a-carbonitrile] | No effect | No effect | No effect | – | – | – | –
16 | CC(=O)[C@H]1CC[C@H]2[C@@H]3CCC4=CC(=O)CC[C@]4(C)[C@H]3CC[C@]12C [Progesterone] | No effect | No effect | No effect | – | – | – | –
17 | COC(=O)[C@H]1[C@H]2C[C@@H]3c4[nH]c5cc(OC)ccc5c4CCN3C[C@H]2C[C@@H](OC(=O)c2cc(OC)c(OC)c(OC)c2)[C@@H]1OC [Reserpine] | No effect | No effect | No effect | – | – | – | –
18 | CC1=C(/C=C/C(C)=C/C=C/C(C)=C/CO)C(C)(C)CCC1 [Retinol] | No effect | No effect | No effect | – | – | – | –
19 | CC(=O)OC/C=C(C)/C=C/C=C(C)/C=C/C1=C(C)CCCC1(C)C [Retinyl acetate] | No effect | No effect | No effect | – | – | – | –
20 | CCOP(=O)(OCC)C(=Cc1cc(C(C)(C)C)c(O)c(C(C)(C)C)c1)P(=O)(OCC)OCC [SR12813] | No effect | No effect | No effect | – | – | – | –
21 | O=S(=O)(c1ccccc1)N(CC(F)(F)F)c1ccc(C(O)(C(F)(F)F)C(F)(F)F)cc1 [T-0901317] | None of these three VDRs were activated | None of these three VDRs were activated | None of these three VDRs were activated | – | – | – | –
22 | Clc1cnc(Oc2ccc(Oc3ncc(Cl)cc3Cl)cc2)c(Cl)c1 [TCPOBOP] | No effect | No effect | No effect | – | – | – | –
23 | C/C(=C\c1ccc(C(=O)O)cc1)c1ccc2c(c1)C(C)(C)CCC2(C)C [TTNPB] | No effect | No effect | No effect | – | – | – | –
24 | C[C@H](CCC(=O)NCCS(=O)(=O)O)[C@H]1CC[C@H]2[C@@H]3[C@H](O)C[C@@H]4C[C@H](O)CC[C@]4(C)[C@H]3CC[C@]12C [Taurochenodeoxycholic acid] | No effect | No effect | No effect | – | – | – | –
25 | C[C@H](CCC(=O)NCCS(=O)(=O)[O-])[C@H]1CC[C@H]2[C@@H]3CC[C@@H]4C[C@H](O)CC[C@]4(C)[C@H]3C[C@H](O)[C@]12C.[Na+] [Taurodeoxycholic acid sodium salt] | No effect | No effect | No effect | – | – | – | –
26 | C[C@H](CCC(=O)NCCS(=O)(=O)[O-])[C@H]1CC[C@H]2[C@@H]3C[C@H](O)[C@@H]4C[C@H](O)CC[C@]4(C)[C@H]3CC[C@]12C.[Na+] [Taurohyodeoxycholic acid] | No effect | No effect | No effect | – | – | – | –
27 | C[C@H](CCC(=O)NCCS(=O)(=O)O)[C@H]1CC[C@H]2[C@@H]3CC[C@@H]4C[C@H](OS(=O)(=O)O)CC[C@]4(C)[C@H]3CC[C@]12C [Taurolithocholic acid 3-sulfate] | No effect | No effect | No effect | – | – | – | –
28 | CCCCCCCCCCCCCCSCC(=O)O [Tetradecylthioacetic acid] | No effect | No effect | No effect | – | – | – | –
